Consider two molecules from ChEMBL document CHEMBL5316313, “Discovery of Novel 3-Phenylpiperidine Derivatives Targeting the β-Catenin/B-Cell Lymphoma 9 Interaction as a Single Agent and in Combination with the Anti-PD-1 Antibody for the Treatment of Colorectal Cancer” (J Med Chem, 2023).

The target of data set [1] is T1, beta-catenin-B-cell lymphoma 9 protein complex (Homo sapiens, UniProt P35222).
T1 sequence (P35222 whole entry): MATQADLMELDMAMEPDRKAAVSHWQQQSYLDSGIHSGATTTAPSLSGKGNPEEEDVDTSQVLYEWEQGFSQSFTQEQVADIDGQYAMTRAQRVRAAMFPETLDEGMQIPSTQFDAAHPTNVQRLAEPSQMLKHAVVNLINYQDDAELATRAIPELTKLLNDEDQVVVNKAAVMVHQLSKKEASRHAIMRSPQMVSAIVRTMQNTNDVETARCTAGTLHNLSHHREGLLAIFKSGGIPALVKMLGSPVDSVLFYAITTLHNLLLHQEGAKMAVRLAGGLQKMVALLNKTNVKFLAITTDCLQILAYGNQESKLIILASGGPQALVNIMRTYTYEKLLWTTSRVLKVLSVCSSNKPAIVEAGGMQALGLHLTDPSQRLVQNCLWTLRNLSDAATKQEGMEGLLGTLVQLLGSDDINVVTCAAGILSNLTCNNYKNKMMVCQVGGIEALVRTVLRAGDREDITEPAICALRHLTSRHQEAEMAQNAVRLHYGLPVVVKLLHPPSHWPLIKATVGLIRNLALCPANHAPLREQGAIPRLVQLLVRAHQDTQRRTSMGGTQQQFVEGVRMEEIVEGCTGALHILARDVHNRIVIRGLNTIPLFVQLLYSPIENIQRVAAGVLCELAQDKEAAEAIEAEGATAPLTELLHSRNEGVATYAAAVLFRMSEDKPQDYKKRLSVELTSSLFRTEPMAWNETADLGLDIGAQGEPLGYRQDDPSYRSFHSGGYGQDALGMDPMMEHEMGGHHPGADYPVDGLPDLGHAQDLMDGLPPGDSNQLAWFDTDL
T1 sequence (O00512 whole entry): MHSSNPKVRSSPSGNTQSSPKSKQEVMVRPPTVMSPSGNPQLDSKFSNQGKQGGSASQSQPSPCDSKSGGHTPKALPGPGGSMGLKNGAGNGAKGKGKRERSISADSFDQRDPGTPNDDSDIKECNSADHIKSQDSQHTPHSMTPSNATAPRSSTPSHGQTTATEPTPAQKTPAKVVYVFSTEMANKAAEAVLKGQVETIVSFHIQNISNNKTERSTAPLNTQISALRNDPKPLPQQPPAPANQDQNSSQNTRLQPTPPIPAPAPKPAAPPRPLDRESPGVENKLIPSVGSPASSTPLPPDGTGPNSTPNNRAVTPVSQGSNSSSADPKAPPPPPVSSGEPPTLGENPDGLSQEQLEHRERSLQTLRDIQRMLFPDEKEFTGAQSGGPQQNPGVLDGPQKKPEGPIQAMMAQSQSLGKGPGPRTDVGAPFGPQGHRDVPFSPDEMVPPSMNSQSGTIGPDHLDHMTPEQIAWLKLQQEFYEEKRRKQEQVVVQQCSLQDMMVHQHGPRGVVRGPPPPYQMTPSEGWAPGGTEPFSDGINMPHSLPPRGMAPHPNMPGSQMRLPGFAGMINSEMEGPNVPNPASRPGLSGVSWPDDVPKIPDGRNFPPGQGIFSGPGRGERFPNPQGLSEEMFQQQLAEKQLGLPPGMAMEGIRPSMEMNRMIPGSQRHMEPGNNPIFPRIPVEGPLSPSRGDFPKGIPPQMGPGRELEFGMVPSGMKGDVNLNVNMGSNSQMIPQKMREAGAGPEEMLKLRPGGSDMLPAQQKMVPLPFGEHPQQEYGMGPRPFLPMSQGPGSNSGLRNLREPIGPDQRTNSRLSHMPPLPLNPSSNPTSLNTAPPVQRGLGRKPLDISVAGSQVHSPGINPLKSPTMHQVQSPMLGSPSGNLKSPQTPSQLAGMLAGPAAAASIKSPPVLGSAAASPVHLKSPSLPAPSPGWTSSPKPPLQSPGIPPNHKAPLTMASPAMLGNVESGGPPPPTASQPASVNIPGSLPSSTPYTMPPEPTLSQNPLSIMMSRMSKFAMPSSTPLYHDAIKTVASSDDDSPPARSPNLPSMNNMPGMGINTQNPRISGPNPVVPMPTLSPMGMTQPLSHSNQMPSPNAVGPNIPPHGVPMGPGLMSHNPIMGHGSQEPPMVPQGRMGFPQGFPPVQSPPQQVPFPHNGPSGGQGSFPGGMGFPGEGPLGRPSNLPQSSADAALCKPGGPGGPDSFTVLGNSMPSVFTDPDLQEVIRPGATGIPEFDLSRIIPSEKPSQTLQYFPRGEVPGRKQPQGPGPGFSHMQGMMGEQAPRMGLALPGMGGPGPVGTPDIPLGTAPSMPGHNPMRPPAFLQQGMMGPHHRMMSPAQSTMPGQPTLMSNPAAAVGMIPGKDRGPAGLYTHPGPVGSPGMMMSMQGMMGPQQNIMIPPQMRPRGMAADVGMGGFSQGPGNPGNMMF
The data set can be described thus: Inhibition of beta-catenin/BCL9 protein-protein interaction in Wnt-independent human RKO cells assessed as reduction in Axin2 expression level by qRT-PCR assay. In kind it is cell-based. For orientation: In qPCR the cycle at which signal appears reflects the starting amount.

Data set [2] deals with T1, beta-catenin-B-cell lymphoma 9 protein complex. The data set can be described thus: Inhibition of beta-catenin/BCL9 protein-protein interaction in Wnt-independent human HEK293 cells assessed as reduction in Axin2 expression level by qRT-PCR assay. It is filed as cell-based.
The next data set concerns HCT-116. The data set can be described thus: Cytotoxicity against Wnt-dependent human HCT-116 cells assessed as reduction in cell viability at 10 to 20 uM by LDH release assay. It is filed as toxicity, cell-based. To be noted: hct-116, 20 µM, dose 10-20 µM. In general terms: LDH in the medium is a marker of cell lysis.
Data set [3] deals with CT26. As to the kind of experiment: Induction of apoptosis in Wnt-dependent mouse CT26 cells assessed as necrotic cells at 20 uM incubated for 24 hrs by Annexin V-Alexa Fluor 647/PI staining based flow cytomtery (Rvb=1.04%). In kind it is functional.
The test system of data set [4] is CT26. As to the kind of experiment: Antitumor activity against mouse CT26 cells xenografted in BALB/c mouse assessed as tumor growth inhibition at 10 to 30 mg/kg, ip QD and measured upto 9 days. It is filed as functional, organism-based. To be noted: dose 10-30 mg/kg, time <= 9.0 day.
A short description of data set [5]: Toxicity in BALB/c mouse xenografted with mouse CT26 cells assessed as pathological changes in liver at 30 mg/kg, ip QD by hematoxylin and eosin staining based microscopic analysis. In kind it is organism-based. To be noted: in vivo.
Data set [6] can be described thus: Tmax in Sprague-Dawley rat at 21 mg/kg, ip and measured upto 24 hrs by LC-MS analysis. It is filed as ADME, organism-based. To be noted: in vivo.
The test system of data set [7] is CT26. As to the kind of experiment: Antitumor activity in mouse CT26 cells xenografted in BALB/c mouse assessed as increase in granzyme B-positive CD8+ T cell infiltration into tumor at 30 mg/kg, ip QD by flow cytometry. It is filed as functional, organism-based. For orientation: A flow cytometer gives signals particle by particle.
Data set [8] has as its system CT26. The data set can be described thus: Antitumor activity in mouse CT26 cells xenografted in BALB/c mouse assessed as increase in IFNG mRNA expression level in tumor at 30 mg/kg, ip QD by qRT-PCR analysis. In kind it is functional, organism-based.
Data set [9] deals with CT26. As to the kind of experiment: Synergistic antitumor activity in mouse CT26 cells xenografted in BALB/c mouse assessed as increase in Cd8 mRNA expression level in tumor at 30 mg/kg, ip QD in presence of anti-PD-1 antibody cotreatment at 10 mg/kg,ip BIW by qRT-PCR analysis. It is filed as functional, organism-based.
In data set [10] the test system is CT26. To be noted: Mus musculus, BALB/c, dose 30.0 mg/kg, route ip.
Description: In vivo inhibition of Wnt signaling pathway in mouse CT26 cells implanted in BALB/c mouse assessed as reduction in Lgr5 mRNA expression level in tumor at 30 mg/kg, ip QD by qRT-PCR analysis

SMILES strings stand for the structures. Calls of active or inactive are those of the source. The rule behind the calls is not given here.

Consider `O=C1[C@H](Cc2ccc(O)cc2)N2C(=O)CCN(C(=O)NCc3ccccc3)[C@H]2CN1Cc1cccc2ccccc12`, for which the results for the IC50 in data set [1] and in data set [2] were 26.3 µM and 38.3 µM, respectively.

As for `CC(C)c1ccc(-c2cccc(S(=O)(=O)N3CCCC(c4cccc(OC(C)(C)C(=O)NS(=O)(=O)c5ccc(C(F)(F)F)cc5)c4)C3)c2)cc1` (stereo unspecified), the Activity entry with HCT-116 was “Non-Toxic”; in the data set with CT26 [3], 1.42%; in the data set with CT26 [4] it was “Dose-Dependent Effect”; in [5], “Non-Toxic”. Further, the Tmax in data set [6] is 30 min. For the same molecule, the outcome with CT26 [7], with CT26 [8] and in the data set with CT26 [9] was Active. The inhibition result in the data set with CT26 [10] is “Active”.

The term IC50 denotes the concentration that inhibits the measured activity by half. The term Tmax denotes the time at which the peak concentration occurs.
